Our source for the IC50, Kd and inhibition values is ChEMBL document CHEMBL3217618, “The use of phosphate bioisosteres in medicinal chemistry and chemical biology” (Medchemcomm, 2012).

Structures are written as SMILES. Numbered stars: 1 amine (or outer) side, 2 acyl side, 3 side chain; on linkers, the order of the positions; unused ones are H or OH. Square brackets hold non-standard residues; d marks the D form. Peptide text beside a SMILES is read from it. X1 = NS(=O)(=O)Cc1ccc(C[C@H](N[*:1])C(=O)[*:2])cc1

A short description of test [1]: Inhibition of Streptococcus pneumoniae PIsY1.
The nature of test [2]: Inhibition of Bacillus anthracis PIsY1.
The nature of test [3]: Inhibition of Yersinia pestis protein tyrosine phosphatase.
Test [4] is described as follows: Agonist activity at INSP3R in MFF assessed as calcium influx. Also noted: species or system Mus musculus.
Test [5] has as its target Growth factor receptor-bound protein 2 (Homo sapiens, UniProt P62993). Briefly: Binding affinity to SH2 domain of GRB2 (unknown origin) by surface plasmon resonance assay. (Surface plasmon resonance follows binding to a sensor surface in real time, without labels.)
In test [6] the target is T1, Tyrosine-protein phosphatase non-receptor type 1 (Homo sapiens) (UniProt P18031).
T1 sequence (whole entry): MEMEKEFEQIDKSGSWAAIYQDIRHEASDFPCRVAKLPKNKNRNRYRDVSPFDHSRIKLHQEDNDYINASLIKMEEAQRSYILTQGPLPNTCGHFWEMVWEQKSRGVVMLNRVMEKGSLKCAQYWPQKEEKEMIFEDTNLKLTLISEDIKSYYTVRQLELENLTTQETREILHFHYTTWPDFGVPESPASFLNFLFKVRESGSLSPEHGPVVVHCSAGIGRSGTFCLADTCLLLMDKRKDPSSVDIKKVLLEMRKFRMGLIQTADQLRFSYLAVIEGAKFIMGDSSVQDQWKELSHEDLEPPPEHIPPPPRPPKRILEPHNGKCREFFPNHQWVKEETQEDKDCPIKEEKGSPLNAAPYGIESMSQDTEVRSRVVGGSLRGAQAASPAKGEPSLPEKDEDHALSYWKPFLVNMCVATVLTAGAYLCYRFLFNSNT
Put plainly: Inhibition of PTP1B (unknown origin) at 11 uM.

Chain of Growth factor receptor-bound protein 2 (P62993 whole entry, the tested form may be a part): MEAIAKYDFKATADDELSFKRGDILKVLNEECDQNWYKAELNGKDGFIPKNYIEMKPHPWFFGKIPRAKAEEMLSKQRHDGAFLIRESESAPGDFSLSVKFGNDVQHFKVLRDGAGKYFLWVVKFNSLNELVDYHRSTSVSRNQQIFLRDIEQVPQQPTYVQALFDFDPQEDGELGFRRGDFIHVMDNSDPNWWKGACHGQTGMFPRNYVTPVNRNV

As usually defined, the IC50 is the midpoint of a concentration-inhibition curve. In the case of `CCCCCCCCCCCCCCCC(=O)C(F)(F)P(=O)(O)O`, the IC50 in test [1] amounted to 39 µM; in test [2], 50 µM.

For the compound `CC(=O)N[C@@H](CC(=O)O)C(=O)N[C@@H](C)C(=O)N[C@@H](CC(=O)O)C(=O)N[C@@H](CCC(=O)O)C(=O)N[C@@H](Cc1ccc(CS(N)(=O)=O)cc1)C(=O)N[C@@H](CC(C)C)C(N)=O` (Ac-DADE[X1]L-NH2), in test [3], the IC50 was 0.37 µM.

Take `COP(=O)(O)O[C@@H]1[C@@H](O)[C@H](OP(=O)(O)O)[C@H](O)[C@H](O)[C@H]1OP(=O)(O)O`: the concentration for half-maximal inhibition (IC50) in test [4] is 9.7 µM.

One may read the Kd as the equilibrium constant for the complex coming apart. Low readings indicate higher affinity, high ones lower affinity. `Cc1ccc2c(ccn2C[C@@H]2C/C=C\C[C@H](c3ccc(CP(C)(=O)O)cc3)[C@H](CC(=O)O)C(=O)NC3(CCCCC3)C(=O)N[C@@H](CC(N)=O)C(=O)NC2)c1` came in with a Kd in test [5] of 0.0162 µM.

With `CCCCCCCCCCCCCCCC(=O)CP(=O)(O)O`, in test [2], the midpoint of inhibition, the IC50, lay at 90 µM.

Take `CCCCCCCCCCCCCCCC(=O)NS(=O)(=O)Oc1ccc(OC)cc1`: the IC50 in test [2] was determined as 35 µM.

The inhibition is the percentage by which the read-out fell short of the control. Higher therefore signals a response far below the control. The compound `CCCCCNC(=O)[C@H](Cc1ccc(OC(C(=O)O)C(=O)O)cc1)NC(=O)CCC(=O)O` registered an inhibition in test [6] of 80%.

`CCCCCCCC/C=C/CCCCCCCC(=O)NS(=O)(=O)NCCC`: the half-inhibitory concentration (IC50) in test [2] was 200 µM.

Compound `CCCCCC/C=C/CCCCCCCCCC(=O)NP(=O)(O)O` yielded an IC50 in test [1] of 11 µM.
